According to patent publication US20250268884A1, “Deuterated Domperidone for Treating Gastroparesis” (CinDome Pharma, Inc., priority 2022, published 2025):

Assays:
[1] = tested on: heart rate in healthy subjects; assay: Thorough QT study, placebo-corrected change-from-baseline HR (ΔΔHR); type: in vivo, human
[2] = tested on: cardiac repolarization (QTcF) in healthy subjects; conditions: human, in vivo
[3] = Thorough QT study, plasma pharmacokinetics; type: in vivo, human; conditions: healthy subjects
Excerpt: Blood samples for PK determination were drawn at the same time points immediately after the ECG extractions.

[4] = tested on: cardiac conduction (QRS interval) in healthy subjects; conditions: human, in vivo
Description: Categorical T-wave morphology analysis and measurement of PR and QRS intervals were fully performed manually using a semi-automated process in 3 of the 10 ECG replicates at each time point. Final quality control and diagnostic interpretations were performed by the study cardiologist.
An unstructured covariance structure was used to specify the repeated measures at post-dose time points for subject within treatment period. The model also included a subject-specific random effect.

clinical = conditions: human, plasma, oral
Description: The following PK parameters were calculated for deuterated domperidone from plasma concentrations (Day 1) using a noncompartmental method, if the data permitted: • Cmax determined directly from the concentration-time profile.
[formula] • λz calculated from a semi-logarithmic plot of the plasma concentration versus time curve. The parameter was calculated by linear least-squares regression analysis using points in the terminal logarithmic-linear phase; • T½ calculated as natural logarithm (2)/λz; • CL/F calculated as Dose/AUC0-∞; • Vz/F calculated as Dose/(λz×AUC0-∞); • Rcmax calculated as Cmax on Day 14/Cmax on Day 1; and • RAUC calculated as AUCtau on Day 14/AUCtau on Day 1.

Compound: [2H]c1c([2H])c([2H])c2c([nH]c(=O)n2CCCN2CCC(n3c(=O)[nH]c4cc(Cl)ccc43)CC2)c1[2H] [Deudomperidone, 1-{3-[4-(5-chloro-2-oxo-2,3-dihydro-1H-1,3-benzodiazol-1-yl)piperidin-1yl]propyl}-2,3-dihydro(4,5,6,7-D4)-1H-1,3-benzodiazol-2-one]
- ΔΔHR LS Mean ([1]; 1 H Post Dose, 30 mg CIN-102 (Treatment A)): −1.4 bpm
- ΔΔHR LS Mean ([1]; 1 H Post Dose, 100 mg CIN-102 (Treatment B)): −1.1 bpm
- ΔΔHR LS Mean ([1]; 1.5 H Post Dose, 30 mg CIN-102 (Treatment A)): −1.0 bpm
- ΔΔHR LS Mean ([1]; 1.5 H Post Dose, 100 mg CIN-102 (Treatment B)): −0.7 bpm
- ΔΔHR LS Mean ([1]; 2 H Post Dose, 30 mg CIN-102 (Treatment A)): 0.4 bpm
- ΔΔHR LS Mean ([1]; 2 H Post Dose, 100 mg CIN-102 (Treatment B)): 0.2 bpm
- ΔΔHR LS Mean ([1]; 2.5 H Post Dose, 30 mg CIN-102 (Treatment A)): −0.7 bpm
- ΔΔHR LS Mean ([1]; 2.5 H Post Dose, 100 mg CIN-102 (Treatment B)): −0.8 bpm
- ΔΔHR LS Mean ([1]; 3 H Post Dose, 30 mg CIN-102 (Treatment A)): −1.4 bpm
- ΔΔHR LS Mean ([1]; 3 H Post Dose, 100 mg CIN-102 (Treatment B)): −1.0 bpm
- ΔΔHR LS Mean ([1]; 4 H Post Dose, 30 mg CIN-102 (Treatment A)): 0.0 bpm
- ΔΔHR LS Mean ([1]; 4 H Post Dose, 100 mg CIN-102 (Treatment B)): 0.1 bpm
- ΔΔHR LS Mean ([1]; 5 H Post Dose, 30 mg CIN-102 (Treatment A)): −0.3 bpm
- ΔΔHR LS Mean ([1]; 5 H Post Dose, 100 mg CIN-102 (Treatment B)): −0.8 bpm
- ΔΔHR LS Mean ([1]; 6 H Post Dose, 30 mg CIN-102 (Treatment A)): −0.2 bpm
- ΔΔHR LS Mean ([1]; 6 H Post Dose, 100 mg CIN-102 (Treatment B)): −0.5 bpm
- ΔΔHR LS Mean ([1]; 8 H Post Dose, 30 mg CIN-102 (Treatment A)): 0.7 bpm
- ΔΔHR LS Mean ([1]; 8 H Post Dose, 100 mg CIN-102 (Treatment B)): −0.9 bpm
- ΔΔHR LS Mean ([1]; 12 H Post Dose, 30 mg CIN-102 (Treatment A)): −0.5 bpm
- ΔΔHR LS Mean ([1]; 12 H Post Dose, 100 mg CIN-102 (Treatment B)): −0.8 bpm
- ΔΔHR LS Mean ([1]; 24 H Post Dose, 30 mg CIN-102 (Treatment A)): 1.1 bpm
- ΔΔHR LS Mean ([1]; 24 H Post Dose, 100 mg CIN-102 (Treatment B)): 0.1 bpm
- ΔΔHR LS Mean ([1]; 36 H Post Dose, 30 mg CIN-102 (Treatment A)): 0.5 bpm
- ΔΔHR LS Mean ([1]; 36 H Post Dose, 100 mg CIN-102 (Treatment B)): −0.4 bpm
- ΔΔHR LS Mean ([1]; 48 H Post Dose, 30 mg CIN-102 (Treatment A)): 0.9 bpm
- ΔΔHR LS Mean ([1]; 48 H Post Dose, 100 mg CIN-102 (Treatment B)): 0.5 bpm
- tachycardic outliers ([1]; across treatment periods): no tachycardic outliers
- mean ΔΔHR, by-time point analysis ([1]; both dose levels, all post-dose time points): below 10 bpm
- estimated slope of concentration-QTc relationship, Model B [2]: 0.79 ms per ng/mL
- plasma concentration up to which an effect on ΔΔQTcF exceeding 10 ms can be excluded [2]: ~92 ng/mL
- treatment effect-specific intercept, Model B [2]: -0.03 ms
- time of highest mean plasma concentration of deuterated domperidone ([3]; 30 mg single dose): 1.5 hours post-dose
- time of highest mean plasma concentration of deuterated domperidone ([3]; 100 mg single dose): 2 hours post-dose
- LS mean placebo-corrected ΔQRS (ΔΔQRS) [4]: ±1.1 ms
- Tmax (clinical; 5 mg, Tmax, Day 1 (single dose), 5 mg BID, median, plasma deuterated domperidone): 2 h
- Tmax (clinical; 5 mg, Tmax, Day 14 (steady state), 5 mg BID, median, plasma deuterated domperidone): 2 h
- Tmax (clinical; 10 mg, Tmax, Day 1 (single dose), 10 mg BID, median, plasma deuterated domperidone): 2 h
- Tmax (clinical; 10 mg, Tmax, Day 14 (steady state), 10 mg BID, median, plasma deuterated domperidone): 2 h
- Tmax (clinical; 20 mg, Tmax, Day 1 (single dose), 20 mg QD, median, plasma deuterated domperidone): 2.5 h
- Tmax (clinical; 20 mg, Tmax, Day 14 (steady state), 20 mg QD, median, plasma deuterated domperidone): 2 h
- Tmax (clinical; median Tmax, across dose groups (5 mg BID, 10 mg BID, 20 mg QD), patients with gastroparesis): 2 to 2.5 h
